Source: PMC7993727, “Discovery of a novel AR/HDAC6 dual inhibitor for prostate cancer treatment” (Aging (Albany NY), 2021)

Columns and labels:
PSA = PSA mRNA (qRT-PCR) and protein (Western blot) expression in VCaP cells; type: cell-based; conditions: 10 nM DHT, 24 hours
Method: (§1) RNA expression level was analyzed by qRT-PCR and protein expression level was analyzed by Western blot. […] (I) Representative immunofluorescence microscopic images of VCaP cells for checking the subcellular localization of AR.
(§2) The RNA of VCaP cells was extracted using a Simply P Total RNA Extraction kit (Bioer technology) and cDNA was synthesized using a SMARTer PCR cDNA Synthesis Kit (Clontech). PSA and β-actin primers were synthesized by Sangon Biotech according to previous literature. Real-time PCR was performed using the PowerUp SYBR™ Green kit (ThermoFisher). The PCR program was run on a LightCycler 480II (Roche) and set as follows: 2 minutes at 95° C followed by 40 cycles of 30 seconds at 95° C, 15 seconds at 60° C and 30 seconds at 72° C. Data were quantified using the 2-ΔΔCt method based on the Ct values of PSA and β-actin from two parallel experiments performed in triplicate.
(§3) The whole-cell extracts were prepared in lysis buffer with a protease inhibitor cocktail (Bimake), while the xenograft tissue extracts were prepared in 0.5% Nonidet P 40 Substitute solution (Biosharp) with cocktail protease inhibitor (Bimake). Each sample containing 30 μg of total protein was loaded onto 10% SDS-PAGE and electrotransferred onto polyvinylidene fluoride membranes. […]

TMPRSS2 = TMPRSS2 mRNA (qRT-PCR) and protein (Western blot) expression in VCaP cells; type: cell-based; conditions: 10 nM DHT, 24 hours
Method: as §1, §2, §3

HDAC6 = target: T1, HDAC6 (Homo sapiens, UniProt Q9UBN7); experiment: acetylation of α-tubulin (HDAC6 substrate) in VCaP cells, Western blot; type: cell-based; conditions: 24 hours
T1 sequence (Q9UBN7 1-1215): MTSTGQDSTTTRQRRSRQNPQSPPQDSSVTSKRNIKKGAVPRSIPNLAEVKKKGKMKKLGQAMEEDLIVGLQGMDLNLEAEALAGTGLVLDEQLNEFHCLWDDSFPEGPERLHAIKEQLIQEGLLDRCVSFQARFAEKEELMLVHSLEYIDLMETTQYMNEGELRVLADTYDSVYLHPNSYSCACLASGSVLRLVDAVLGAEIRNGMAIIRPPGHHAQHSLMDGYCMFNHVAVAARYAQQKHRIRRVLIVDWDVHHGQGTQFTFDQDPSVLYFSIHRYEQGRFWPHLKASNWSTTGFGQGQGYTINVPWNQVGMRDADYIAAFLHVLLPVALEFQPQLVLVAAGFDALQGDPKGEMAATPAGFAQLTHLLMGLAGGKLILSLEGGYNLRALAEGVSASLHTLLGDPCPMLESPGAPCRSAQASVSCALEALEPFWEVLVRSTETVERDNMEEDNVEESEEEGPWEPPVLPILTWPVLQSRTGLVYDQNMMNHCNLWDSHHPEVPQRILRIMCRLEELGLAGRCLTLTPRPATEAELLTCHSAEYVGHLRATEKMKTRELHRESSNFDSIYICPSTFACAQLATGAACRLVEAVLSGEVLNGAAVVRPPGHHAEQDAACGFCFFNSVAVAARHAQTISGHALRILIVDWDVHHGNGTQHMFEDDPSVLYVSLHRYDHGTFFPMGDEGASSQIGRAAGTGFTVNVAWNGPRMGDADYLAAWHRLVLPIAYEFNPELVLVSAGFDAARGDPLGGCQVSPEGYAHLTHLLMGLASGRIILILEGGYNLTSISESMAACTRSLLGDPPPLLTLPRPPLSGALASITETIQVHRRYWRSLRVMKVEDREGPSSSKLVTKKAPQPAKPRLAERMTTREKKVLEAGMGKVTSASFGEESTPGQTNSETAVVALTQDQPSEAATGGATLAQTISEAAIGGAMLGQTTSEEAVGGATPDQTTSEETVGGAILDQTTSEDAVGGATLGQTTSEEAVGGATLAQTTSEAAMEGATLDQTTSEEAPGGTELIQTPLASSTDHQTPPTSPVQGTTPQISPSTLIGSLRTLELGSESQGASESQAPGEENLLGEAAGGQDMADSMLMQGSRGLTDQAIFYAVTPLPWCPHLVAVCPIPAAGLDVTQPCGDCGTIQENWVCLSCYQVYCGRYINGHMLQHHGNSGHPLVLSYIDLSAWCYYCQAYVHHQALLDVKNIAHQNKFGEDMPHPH
Method: as §1
To evaluate the HDAC6 inhibition ability of Zeta55 in VCaP cells, the acetylation status of α-tubulin protein (a HDAC6 substrate) was assessed using western blot. […] We assessed the protein level of AR in VCaP cells.
The whole-cell extracts were prepared in lysis buffer with a protease inhibitor cocktail (Bimake), while the xenograft tissue extracts were prepared in 0.5% Nonidet P 40 Substitute solution (Biosharp) with cocktail protease inhibitor (Bimake). Each sample containing 30 μg of total protein was loaded onto 10% SDS-PAGE and electrotransferred onto polyvinylidene fluoride membranes. The membranes were blocked with 5% skimmed milk in PBST at room temperature for 2 hours and incubated with primary antibodies at 4° C overnight. After the membranes were washed with PBST three times, they were incubated with horseradish peroxidase-conjugated anti-rabbit or anti-mouse secondary antibody at room temperature for 1 hour. Chemiluminescent detection was performed with WesternBright ECL (Advansta). The immunoblots were visualized using the FluorChem FC3 system (ProteinSimple).

[1] = parameters: method as in PMID 27590197; conditions: rats; cited from earlier work

- α-tubulin acetylation (HDAC6): did not
SMILES: CNC(=O)c1ccc(N2C(=S)N(c3ccc(C#N)c(C(F)(F)F)c3)C(=O)C2(C)C)cc1F [MDV3100, reference compound]
- DHT-induced endogenous mRNA and protein expression of PSA (PSA): significantly suppressed
- DHT-induced endogenous mRNA and protein expression of TMPRSS2 (TMPRSS2): significantly suppressed
- oral bioavailability [1]: 97%
- plasma half-life [1]: 8.56 h
